PubChem BioAssay (NCI)
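Where inhibition never reached the appropriate level, the endpoint shown equals the highest concentration tested. Otherwise, values were interpolated linearly from a five-concentration, 48-hour dose response in 96-well plates. Here, GI50 denotes the concentration required for 50% inhibition of growth. Definition used: TGI = concentration required for complete inhibition of growth.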

Assays:
Assay in all cases: growth of human tumour cells (NCI), 48 h
[1] = test system: HCT-116 colon
[2] = test system: HL-60(TB) leukemia
[3] = test system: KM12 colon
[4] = test system: LOX IMVI melanoma
[5] = test system: NCI-H226 lung
[6] = test system: OVCAR-3 ovarian
[7] = test system: SK-MEL-5 melanoma
[8] = test system: SW-620 colon
[9] = test system: UACC-257 melanoma
[10] = test system: UACC-62 melanoma

Structure (SMILES) | TGI [1] | TGI [2] | TGI [3] | TGI [4] | TGI [5] | TGI [6] | TGI [7] | TGI [8] | TGI [9] | TGI [10] | GI50 [1] | GI50 [2] | GI50 [3] | GI50 [4] | GI50 [5] | GI50 [6] | GI50 [7] | GI50 [8] | GI50 [9] | GI50 [10]
O=C1c2ccccc2-c2ccc(N(Cc3ccc(Br)cc3)Cc3ccc(Br)cc3)cc21 | > 100 µM | 46.8 µM | > 100 µM | > 100 µM | > 100 µM | > 100 µM | > 100 µM | > 100 µM | > 100 µM | > 100 µM |  |  |  |  |  |  |  |  |  | 
COc1ccc(C2C(Cl)C(=O)N2NC(=O)c2ccc(NC(C)=O)cc2)cc1OC (stereo not drawn) | > 100 µM | > 100 µM | > 100 µM |  | > 100 µM | > 100 µM | > 100 µM | > 100 µM | > 100 µM | > 100 µM |  |  |  |  |  |  |  |  |  | 
CSc1nc(NC2OC(CO)C(O)C(O)C2O)c(N)c(=O)n1C (stereo not drawn) | > 100 µM | > 100 µM | > 100 µM | > 100 µM | > 100 µM | > 100 µM | > 100 µM | > 100 µM | > 100 µM | > 100 µM |  |  |  |  |  |  |  |  |  | 
O=C(Nc1ccc(-n2cc(-c3ccncc3)c(-c3ccc(O)c(Cl)c3)n2)cc1)c1ccc(Cl)c(Cl)c1 | > 32.5 µM | > 32.5 µM | > 32.5 µM | 2.88 µM | > 32.5 µM | > 32.5 µM | > 32.5 µM | > 32.5 µM | > 32.5 µM | > 32.5 µM | 1.23 µM | 1.39 µM | 1.63 µM | 0.779 µM | > 32.5 µM | 2.11 µM | 1 µM | 2.08 µM | > 32.5 µM | 2.48 µM
CCCCCCCCCCCCCCCc1ccc(C(=O)C[n+]2ccccc2)cc1 |  | 2.52 µM | 1.59 µM | 1.19 µM | > 100 µM | 3.64 µM | 3.93 µM | 1.54 µM | 3.51 µM |  |  | 0.531 µM | 0.523 µM | 0.348 µM | 4.15 µM | 1.79 µM | 1.44 µM | 0.394 µM | 1.7 µM | 
CCN(CC)CCSc1nc2c([N+](=O)[O-])cccc2[nH]1 |  | > 100 µM | > 100 µM | > 100 µM | > 100 µM | > 100 µM | > 100 µM | > 100 µM | > 100 µM | > 100 µM |  |  |  |  |  |  |  |  |  | 
N=C(N)c1ccc(-c2ccc(-c3ccccc3)o2)cc1 |  | 4.42 µM | 3.58 µM |  | 27.7 µM | 13.4 µM | 3.72 µM | 3.32 µM | 4.56 µM |  |  | 1.93 µM | 1.86 µM |  | 7.93 µM | 3.3 µM | 1.94 µM | 1.72 µM | 2.21 µM | 
Nc1cccc2cc(S(=O)(=O)Nc3ccc(C(=O)O)cc3)ccc12 | > 100 µM | > 100 µM | > 100 µM | > 100 µM | > 100 µM | > 100 µM | > 100 µM | > 100 µM | > 100 µM | > 100 µM |  |  |  |  |  |  |  |  |  | 
O=C(c1no[n+]([O-])c1C(=O)c1csc2ccccc12)c1csc2ccccc12 | 25.9 µM | 0.0737 µM | 18.7 µM | 5.37 µM | 35 µM | 3.78 µM | 26.1 µM | 5.85 µM | 16.3 µM | 25.7 µM |  |  |  |  |  |  |  |  |  | 
CNC1=C(C)C(=O)C2=C(C1=O)C(COC(N)=O)C1(OC)C3NC3CN21 (stereo not drawn) | > 100 µM | > 100 µM | 2.04 µM | 1.41 µM | 4.66 µM | 21.6 µM | 0.268 µM | > 100 µM | 3.64 µM | 1.55 µM |  |  |  |  |  |  |  |  |  | 
Cc1ccc(CCCC(=O)O)cc1C | > 100 µM | > 100 µM | > 100 µM | > 100 µM | > 100 µM | > 100 µM | > 100 µM | > 100 µM | > 100 µM | > 100 µM |  |  |  |  |  |  |  |  |  | 
CC(C)=CCC/C(C)=C/CC/C(C)=C/C(O)c1ccccc1 (stereo not drawn) | 32.2 µM | 43.8 µM | 51.8 µM | 35.9 µM | 46.2 µM | 36.3 µM | 30.2 µM | 38.8 µM | 35.6 µM | 30.9 µM |  |  |  |  |  |  |  |  |  | 
